PubChem BioAssay (NCI)
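Results reflect a 48-hour exposure of cells in 96-well plates to compound at five concentrations. The concentration for 50% growth inhibition is given as GI50. TGI marks complete inhibition of growth.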

Columns and labels:
Test in all cases: inhibition of tumour cell growth, NCI panel, 48 h
DLD-1 colon = system: DLD-1 colon
HCC-2998 colon = system: HCC-2998 colon
HCT-116 colon = system: HCT-116 colon
HOP-18 NSCLC = system: HOP-18 NSCLC
KM20L2 colon = system: KM20L2 colon
M19-MEL melanoma = system: M19-MEL melanoma
SNB-78 CNS = system: SNB-78 CNS
U251 CNS = system: U251 CNS
XF 498 CNS = system: XF 498 CNS
HOP-62 NSCLC = system: HOP-62 NSCLC

| SMILES | TGI (DLD-1 colon) | TGI (HCC-2998 colon) | TGI (HCT-116 colon) | TGI (HOP-18 NSCLC) | TGI (KM20L2 colon) | TGI (M19-MEL melanoma) | TGI (SNB-78 CNS) | TGI (U251 CNS) | TGI (XF 498 CNS) | GI50 (DLD-1 colon) | GI50 (HCC-2998 colon) | GI50 (HCT-116 colon) | GI50 (HOP-18 NSCLC) | GI50 (HOP-62 NSCLC) | TGI (HOP-62 NSCLC) | GI50 (KM20L2 colon) | GI50 (M19-MEL melanoma) | GI50 (SNB-78 CNS) | GI50 (U251 CNS) | GI50 (XF 498 CNS) |
| --- | --- | --- | --- | --- | --- | --- | --- | --- | --- | --- | --- | --- | --- | --- | --- | --- | --- | --- | --- | --- |
| CCCCCCc1cn([C@H]2C[C@H](O)[C@@H](CO)O2)c(=O)[nH]c1=O | > 100 µM | > 100 µM | > 100 µM | > 100 µM | > 100 µM | > 100 µM | > 100 µM | > 100 µM | > 100 µM | – | – | – | – | – | – | – | – | – | – | – |
| NC1CCCCC1N.O=S(=O)([O-])CCCN1CCN(CCO)CC1.O=S(=O)([O-])CCCN1CCN(CCO)CC1.[Pt+4] | > 100 µM | > 63.4 µM | > 100 µM | > 100 µM | > 100 µM | 16.2 µM | > 86.4 µM | > 100 µM | 24.6 µM | 8.44 µM | 9.55 µM | 2 µM | 21.6 µM | > 20.7 µM | > 100 µM | 6.59 µM | 1.18 µM | 15.8 µM | 14.9 µM | 1.25 µM |
| c1ccc(-c2[nH]c(-c3ccccc3)c(-c3cnccn3)c2-c2cnccn2)cc1 | > 100 µM | > 100 µM | > 100 µM | > 100 µM | > 100 µM | > 100 µM | > 100 µM | > 100 µM | > 100 µM | – | – | – | – | – | > 100 µM | – | – | – | – | – |
| CC(=O)O[C@H]1C(=O)[C@@]2(C)C(C(OC(=O)c3ccccc3)[C@]3(O)CC(OC(=O)C(O)C(NC(=O)c4ccccc4)c4ccc(C)cc4)C(C)=C1C3(C)C)[C@]1(OC(C)=O)CO[C@@H]1C[C@@H]2O (stereo not given in full) | > 25 µM | – | 4.75 µM | 23.6 µM | 0.0981 µM | 3.57 µM | > 25 µM | 0.264 µM | 0.134 µM | – | – | – | – | – | 24.1 µM | – | – | – | – | – |
| Nc1ccc(-c2nc3ccccc3s2)cc1 | 77.3 µM | > 100 µM | 35.2 µM | > 100 µM | > 100 µM | > 100 µM | 98.2 µM | 31.9 µM | – | – | – | – | – | – | 60.3 µM | – | – | – | – | – |
| CC1OC=CC(=O)C1O (stereo not given) | > 100 µM | > 100 µM | – | – | > 100 µM | > 100 µM | > 100 µM | > 100 µM | > 100 µM | – | – | – | – | – | > 100 µM | – | – | – | – | – |
| CN(CCN(C)C(=O)CCn1ccc(=O)[nH]c1=O)C(=O)CCn1ccc(=O)[nH]c1=O | – | > 100 µM | > 100 µM | – | > 100 µM | > 100 µM | > 100 µM | > 100 µM | > 100 µM | – | – | – | – | – | > 100 µM | – | – | – | – | – |
| CC1(C)N=C(N)N=C(N)N1c1ccc(OCCCOc2ccccc2)c(Cl)c1 | > 100 µM | 13.1 µM | 13.5 µM | 17.6 µM | 11.3 µM | 15 µM | 18 µM | 11.2 µM | – | – | – | – | – | – | – | – | – | – | – | – |
| COc1ccc(N2C(=O)C(N3C(=O)C=CC3=O)C2C=O)cc1 (stereo not given) | > 100 µM | > 100 µM | > 100 µM | > 100 µM | > 100 µM | > 100 µM | > 100 µM | > 100 µM | – | – | – | – | – | – | > 100 µM | – | – | – | – | – |
